Experimental data taken from patent publication US4933349A, “Treating agent for heart failure” (Daiichi Seiyaku Co., Ltd., priority 1987, dated 1990).
“Also recorded” adds a separate entry of the source. Structures can show the parent of a compound that is named as a salt.

Key:
[1] = test system: Monocrotaline-Induced Heart Failure Model (Heart Failure induced by Pulmonary Hypertension); assay: Efficacy in Monocrotaline-induced heart failure model (heart failure induced by pulmonary hypertension); assay type: in vivo, SD-SLC male rats
Experimental: Efficacy in Monocrotaline-Induced Heart Failure Model (A Model of Heart Failure induced by Pulmonary Hypertension)
SD-SLC male rats (body weight: 160 to 190 g) were used. Monocrotaline was dissolved in 1N hydrochloric acid, and the solution was adjusted to a pH of 7.4 with a 1N sodium hydroxide aqueous solution. Distilled water was added thereto to make a 40 mg/ml solution. The solution was subcutaneously administered to the rats at a dose of 40 mg/kg to prepare right ventricular insufficient rats.
Another group of rats was subcutaneously administered with 1 ml/kg of physiological saline only and served as intact control.
Compound A was dissolved in distilled water. Six hours from the administration of Monocrotaline, the solution was orally administered to the test animals at a single daily dose of 10 mg/kg for consecutive 1 month (6 days per week). As a control group, the right ventricular insufficient rats orally received 5 ml/kg of distilled water only.
On the next day of the final administration of Compound A, a catheter was inserted into the right ventricle under anesthesia with pentobarbital (50 mg/kg, i.p.), and the right ventricular systolic pressure was measured. Thereafter, the heart was excised, divided into the left ventricle (including the septum) and the right ventricle, and the wet weight of each ventricle was determined. The results obtained are given in Table 3, as expressed as mean±S.E.

rats = assay: Acute toxicity in rats (LD50), oral or intravenous; assay type: in vivo
Description: Acute toxicities of Compound A in rats through oral administration or intravenous injection were as follows.

[2] = test system: Heart Failure induced by Myocardial Infarction; assay: Efficacy in heart failure induced by myocardial infarction (left coronary artery ligation), hemodynamic measurements and ventricle weight; assay type: in vivo, SD-SLC male rats
Experimental: Efficacy in Heart Failure induced by Myocardial Infarction SD-SLC male rats (body weight: 272 to 315 g) (purchased from Shizuoka Jikken Dobutsu Kyodo Kumiai) were used as test animals. Intercostal thoracotomy was made on the left chest of the rat anesthesized with pentobarbital (50 mg/kg, i.p.). The left coronary artery was then ligated at the position 2 to 3 mm away from its origin according to the method of Selye et al, Angiology, Vol. 11, 398 (1960). Immediately after confirming that the peripheral cardiac muscle of the open chest rat was involved in ischemia, the opening was closed, and the animal was fed on food and tap water ad lib. As a sham operation group, another group of rats received thoracotomy in the same manner as described above except for carrying out no ligation of the coronary artery. […] A control group orally received 5 ml/kg/day of ion-exchanged water only. On the next day of the final administration of Compound A, a catheter was inserted into the femoral artery and the left ventricle of the rat under anesthesia with Inactin (100 mg/kg, i.p.), and systemic mean blood pressure, maximum rate of increase of the intraventricular pressure (LV dp/dt max), contractile index (LV dp/dt max/p), left ventricular systolic pressure, left ventricular diastolic pressure and heart rate were measured. After completion of these measurements, the heart was excised and divided into the left ventricle (including the septum) and the right ventricle. The wet weight of each ventricle was measured.

[3] = 10 mg/kg p.o. daily, 6 times per week, 1 month, mean±S.E., n = 7
[4] = 10 mg/kg p.o. daily, 6 times per week, 1 month, mean±S.E., n = 7, ** P < 0.01 vs sham, # P < 0.05 vs control group
[5] = coronary artery ligation, 1 month
[6] = wet weight after 10 mg/kg p.o. daily, 1 month, mean±S.E., n = 7, * P < 0.05 vs control group

SMILES: O=C(O)c1ccc2c(c1)CCC(Cn1ccnc1)C2 (stereo not shown) [Compound A, 6-(1-Imidazolylmethyl)-5,6,7,8-tetrahydronaphthalene-2-carboxylic acid hydrochloride hemihydrate]
- Right Ventricular Systolic Pressure ([1]; 10 mg/kg p.o. daily, 6 days per week, 1 month, mean±S.E., N = 7, * P < 0.05 vs intact control, # P < 0.05 vs control group): 46.9 ± 4.9 mmHg
- Right Ventricle Weight/Left Ventricle Weight ([1]; 10 mg/kg p.o. daily, 6 days per week, 1 month, mean±S.E., N = 7, ** P < 0.01 vs intact control group): 0.41 ± 0.04
- Right ventricular hypertrophy / cardiac hypertrophy (result in words) ([1]; Monocrotaline, 1 month): showed a tendency to inhibit the right ventricular hypertrophy
- Right ventricular systolic pressure (result in words) ([1]; Monocrotaline, 1 month): significantly inhibited the increase in the right ventricular systolic pressure
- Improvement of heart failure induced by pulmonary hypertension (result in words) ([1]; long-term administration): exhibited improvements of heart failure induced by pulmonary hypertension
- LD50 (rats; female rats, i.v.): 783 mg
- LD50 (rats; female rats, p.o.): 1994 mg
- LD50 (rats; male rats, i.v.): 807 mg
- LD50 (rats; male rats, p.o.): 2438 mg
- Heart Rate [2, 3]: 399 ± 14 min⁻¹
- Mean Blood Pressure [2, 3]: 132 ± 5 mmHg
- Left Ventricular Systolic Pressure ([2]; 10 mg/kg p.o. daily, 6 times per week, 1 month, mean±S.E., n = 7, * P < 0.05 vs sham operation group): 143 ± 6 mmHg
- Contractile Index (LV dp/dt max/p) [2, 4]: 79 ± 5 s⁻¹
- Left Ventricular Diastolic Pressure [2, 4]: 12.0 ± 3.2 cmH2 O
- Contractile index (result in words) [2, 5]: inhibition on reduction of contractile index
- Left ventricular diastolic pressure (result in words) [2, 5]: inhibition on reduction of contractile index and on elevation of left ventricular diastolic pressure was observed
- Ventricle weight / cardiac hypertrophy (result in words) ([2]; coronary artery ligation, 1 month, hydrochloride hemihydrate): increase of the ventricle weight can be suppressed significantly; also recorded: inhibit cardiac hypertrophy
- Blood pressure (result in words) ([2]; long-term administration): without adversely affecting the blood pressure
- Cardiac contractility and pressure load to the heart (result in words) ([2]; long-term administration): improved reduction of cardiac contractility and relieved pressure load to the heart
- Weight of Ventricle, Right ([2]; wet weight after 10 mg/kg p.o. daily, 1 month, mean±S.E., n = 7): 0.361 ± 0.028 g
- Weight of Ventricle, Left [2, 6]: 0.861 ± 0.029 g
- Weight of Ventricle, Total [2, 6]: 1.222 ± 0.052 g
